12 molecules from ChEMBL document CHEMBL4382290, “Tetrahydroisoquinoline CXCR4 Antagonists Adopt a Hybrid Binding Mode within the Peptide Subpocket of the CXCR4 Receptor” (ACS Med Chem Lett, 2019) can be followed below.

The structures appear in SMILES notation.

The assay has as its system Human immunodeficiency virus 1. The assay can be described thus: Antiviral activity against CXCR4 tropic HIV1 3B infected in human MAGI-CCR5/CXCR4 cells measured after 2 to 6 days by beta-galactosidase reporter gene assay. It is filed as functional, organism-based. The note with it: Human immunodeficiency virus 1, 3B.
The IC50 is the point on the concentration scale where inhibition reaches its midpoint. The low end stands for higher potency, the high end for lower potency. `NCCCCN(C[C@H]1NCCc2ccccc21)[C@H]1CCCc2cccnc21` gave an IC50 of 450 nM.

As for `NCCCCN(C[C@@H]1Cc2ccccc2CN1)[C@H]1CCCc2cccnc21`, 1400 nM corresponded to half-maximal inhibition (IC50).

As to `NCCCCN(C[C@@H]1NCCc2ccccc21)[C@H]1CCCc2cccnc21`, inhibition was half-maximal at 30000 nM (IC50).

`NCCCCN(C[C@@H]1CCc2ccccc2N1)[C@H]1CCCc2cccnc21` came in with an IC50 of 30000 nM.

The molecule `NCCCCN(C[C@H]1CCc2ccccc2N1)[C@H]1CCCc2cccnc21` gave a half-maximal inhibitory concentration (IC50) of 250 nM.

Consider `NCCCCN(C[C@H]1Cc2ccccc2CN1)[C@H]1CCCc2cccnc21`, for which the IC50 turned out to be 5 nM.

Take `Cc1ccc(-c2ccc3c(c2)C=C(C(=O)Nc2ccc(C[N+](C)(C)C4CCOCC4)cc2)CCC3)cc1`: the IC50 was greater than 10000 nM.

As for `NCCCCN(C[C@H]1CCCCN1)[C@H]1CCCc2cccnc21`, half-maximal inhibition (IC50) required 1120 nM.

With `NCCCN(C[C@H]1Cc2ccccc2CN1)[C@H]1CCCc2cccnc21`, the IC50 was 380 nM.

Regarding `NCCCCCN(C[C@H]1Cc2ccccc2CN1)[C@H]1CCCc2cccnc21`, the IC50 stood at 170 nM.

Molecule `NCCN(C[C@H]1Cc2ccccc2CN1)[C@H]1CCCc2cccnc21` displayed an IC50 of 6200 nM.

In the case of `NCCCCN(C[C@H]1Cc2ccccc2CN1)[C@H]1CCCc2ccccc21`, 1500 nM corresponded to half-maximal inhibition (IC50).
